Results as given in paper PMC11768289 (Pharmaceuticals, 2025).
Like-named read-outs stand apart in the source and are kept apart here.

Assays:
[1] = Cell viability assay (MTS) in non-infected cells; details: human
A549/ACE2/TMPRSS2 cells = assay: Cell viability assay (MTS) in non-infected cells
[2] = system: SARS-CoV-2 isolate USA-WA1/2020; assay: microbe, parasite or virus in culture; format: cell-based; details: for inhibition at 2.1 µM: Conc. 2.1 µM (0.4 × CC50); for EC50: read-out: SARS-CoV-2 EC50
p97 = target: T1, p97 (Homo sapiens, UniProt P55072); assay: p97 biochemical assay (ATPase activity, PNP/MesG coupled); details: 0.2 mM ATP, 5 min preincubation; for inhibition at 0.1 µM: read-out: p97 Inhib. (%) at 0.10 µM, compound 0.10 µM; for inhibition at 1 µM: read-out: p97 Inhib. (%) at 1.0 µM, compound 1.0 µM; for p97 Inhib. (%) at 0.10 µM: compound 0.10 µM
T1 construct: made in house

[3] = Severe acute respiratory syndrome coronavirus 2, A549-ACE2, 48 h, read-out: SARS-CoV-2 Inhib. (%)
[4] = tested at 0.4 × CC50, or at 50 µM if CC50 higher than 100 µM, A549/ACE2/TMPRSS2
[5] = Severe acute respiratory syndrome coronavirus 2, A549/ACE2/TMPRSS2, MOI 0.01, 48 h, mean ± standard error, read-out: SARS-CoV-2 Inhib. (%)
[6] = Severe acute respiratory syndrome coronavirus 2, A549-ACE2, 48 h
[7] = Severe acute respiratory syndrome coronavirus 2, Conc. 50 µM, A549/ACE2/TMPRSS2, MOI 0.01, 48 h, mean ± standard error, read-out: SARS-CoV-2 Inhib. (%)

T1 sequence (P55072 whole entry): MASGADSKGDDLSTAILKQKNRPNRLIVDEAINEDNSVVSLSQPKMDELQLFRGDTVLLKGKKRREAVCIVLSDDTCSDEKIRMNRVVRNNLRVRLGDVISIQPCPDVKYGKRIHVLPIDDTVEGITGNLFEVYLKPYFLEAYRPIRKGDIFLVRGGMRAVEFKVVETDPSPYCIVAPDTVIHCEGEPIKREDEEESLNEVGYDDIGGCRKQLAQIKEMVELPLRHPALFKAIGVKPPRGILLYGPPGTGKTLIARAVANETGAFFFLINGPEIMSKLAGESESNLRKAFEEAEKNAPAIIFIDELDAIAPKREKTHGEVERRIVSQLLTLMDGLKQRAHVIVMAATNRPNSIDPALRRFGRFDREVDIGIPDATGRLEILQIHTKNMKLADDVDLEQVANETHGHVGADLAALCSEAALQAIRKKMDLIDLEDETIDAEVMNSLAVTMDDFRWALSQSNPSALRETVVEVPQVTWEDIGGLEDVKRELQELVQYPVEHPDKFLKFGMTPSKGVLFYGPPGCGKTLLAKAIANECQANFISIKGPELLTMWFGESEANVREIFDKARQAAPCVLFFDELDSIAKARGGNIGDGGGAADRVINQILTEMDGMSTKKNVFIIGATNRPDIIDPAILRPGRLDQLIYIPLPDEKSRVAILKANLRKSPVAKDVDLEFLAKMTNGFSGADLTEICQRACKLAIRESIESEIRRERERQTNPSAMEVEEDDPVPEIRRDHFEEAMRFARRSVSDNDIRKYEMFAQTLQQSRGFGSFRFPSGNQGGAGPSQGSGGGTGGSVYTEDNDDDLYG

Row | Structure (SMILES) | CC50 at 48 h [1] [µM] | anti-SARS-CoV-2 activity (in words) [2, 4] | inhibition at 0.1 µM (p97) [%] | inhibition at 1 µM (p97) [%] | further results
1 | Cc1cc2c(C(N)=O)cccc2n1-c1nc2c(c(NCc3ccccc3)n1)COCC2 [CB-5083, reference compound] | 0.95 |  |  |  | CC50 (A549/ACE2/TMPRSS2 cells; non-infected A549/ACE2/TMPRSS2 cells, MTS, 48 h): highly toxic; anti-SARS-CoV-2 activity (in words) [2]: minimal inhibition; inhibition at 0.38 µM [2, 3]: 6 ± 4%
2 | CC#CC(=O)Nc1cccc2c1cc(C)n2-c1nc2c(c(NCc3ccccc3)n1)CCCC2 [Compound 6a, reference compound] |  | minimal inhibition | 57 | 97 | inhibition at 0.22 µM ([2]; Severe acute respiratory syndrome coronavirus 2, Conc. 0.22 µM (0.4 × CC50), A549/ACE2/TMPRSS2, MOI 0.01, 48 h, mean ± standard error, read-out: SARS-CoV-2 Inhib. (%)): 6 ± 3%
3 | CC#CC(=O)Nc1cccc2c1cc(C)n2-c1nc2c(c(NCc3ccccc3)n1)COCC2 [Compound 6b, reference compound] |  | minimal inhibition | 38 | 95 | inhibition at 0.46 µM ([2]; Severe acute respiratory syndrome coronavirus 2, Conc. 0.46 µM (0.4 × CC50), A549/ACE2/TMPRSS2, MOI 0.01, 48 h, mean ± standard error, read-out: SARS-CoV-2 Inhib. (%)): 5%
4 | CC#CC(=O)Nc1cccc2c1cc(C)n2-c1nc(NCc2ccccc2)cc(N2CCOCC2)n1 [Compound 8a, N-(1-(4-(Benzylamino)-6-morpholinopyrimidin-2-yl)-2-methyl-1H-indol-4-yl)but-2-ynamide] | 2.4 |  | ~90 | 97 | inhibition at 0.96 µM [2, 3]: 3 ± 5%
5 | C=CC(=O)Nc1cccc2c1cc(C)n2-c1nc(NCc2ccccc2)cc(N2CCOCC2)n1 [Compound 8b, N-(1-(4-(Benzylamino)-6-morpholinopyrimidin-2-yl)-2-methyl-1H-indol-4-yl)acrylamide] | 5.2 |  | 77 | 96 | inhibition at 2.1 µM [2, 5]: 5 ± 8%
6 | C=CS(=O)(=O)Nc1cccc2c1cc(C)n2-c1nc(NCc2ccccc2)cc(N2CCOCC2)n1 [Compound 8c, N-(1-(4-(Benzylamino)-6-morpholinopyrimidin-2-yl)-2-methyl-1H-indol-4-yl)ethenesulfonamide] | 5.2 |  | 65 | 89 | inhibition at 2.1 µM [2, 5]: 8 ± 3%
7 | CC#CC(=O)Nc1cccc2c1cc(C)n2-c1nc(NCc2ccccc2)cc(N2CCCCC2)n1 [Compound 9a, N-(1-(4-(Benzylamino)-6-(piperidin-1-yl)pyrimidin-2-yl)-2-methyl-1H-indol-4-yl)but-2-ynamide] | 76 | excellent antiviral activity | > 90 | 100 | EC50 [2, 6]: 6.7 ± 0.8 µM; inhibition at 30 µM [2, 3]: 98%; p97 Inhib. (%) at 0.10 µM (p97): 94%
8 | C=CC(=O)Nc1cccc2c1cc(C)n2-c1nc(NCc2ccccc2)cc(N2CCCCC2)n1 [Compound 9b, N-(1-(4-(Benzylamino)-6-(piperidin-1-yl)pyrimidin-2-yl)-2-methyl-1H-indol-4-yl)acrylamide] |  | markedly reduced | 64 | 91 | inhibition at 50 µM [2, 7]: 28 ± 3%
9 | C=CS(=O)(=O)Nc1cccc2c1cc(C)n2-c1nc(NCc2ccccc2)cc(N2CCCCC2)n1 [Compound 9c, N-(1-(4-(Benzylamino)-6-(piperidin-1-yl)pyrimidin-2-yl)-2-methyl-1H-indol-4-yl)ethenesulfonamide] | 15 | marginal inhibition | 73 | 95 | inhibition at 5.9 µM [2, 3]: 0%
10 | CC#CC(=O)Nc1cccc2c1cc(C)n2-c1nc(NCc2ccccc2)cc(C2CCCCC2)n1 [Compound 10a, N-(1-(4-(Benzylamino)-6-cyclohexylpyrimidin-2-yl)-2-methyl-1H-indol-4-yl)but-2-ynamide] | > 100 | excellent antiviral activity | ~90 | 100 | EC50 [2, 6]: 6.8 ± 0.6 µM; inhibition at 50 µM [2, 3]: 96 ± 1%
11 | C=CC(=O)Nc1cccc2c1cc(C)n2-c1nc(NCc2ccccc2)cc(C2CCCCC2)n1 [Compound 10b, N-(1-(4-(Benzylamino)-6-cyclohexylpyrimidin-2-yl)-2-methyl-1H-indol-4-yl)acrylamide] | > 100 | markedly reduced | 70 | 96 | inhibition at 50 µM [2, 7]: 30 ± 9%
12 | C=CS(=O)(=O)Nc1cccc2c1cc(C)n2-c1nc(NCc2ccccc2)cc(C2CCCCC2)n1 [Compound 10c, N-(1-(4-(Benzylamino)-6-cyclohexylpyrimidin-2-yl)-2-methyl-1H-indol-4-yl)ethenesulfonamide] | 12 | marginal inhibition | 68 | 95 | inhibition at 4.8 µM ([2]; Severe acute respiratory syndrome coronavirus 2, Conc. 4.8 µM (0.4 × CC50), A549/ACE2/TMPRSS2, MOI 0.01, 48 h, mean ± standard error, read-out: SARS-CoV-2 Inhib. (%)): 7 ± 3%
13 | Cc1cc2c(C(N)=O)cccc2n1-c1nc(NCc2ccccc2)cc(C2CCCCC2)n1 [Compound 12] |  |  | 18 | 21 | p97 Inhib. (%) at 1.0 µM (p97; compound 1.0 µM): minimal inhibition
14 | Cc1cc(OCc2nnc(SC3CCCC3)n2-c2cccnc2)ccc1-c1ccc(S(C)(=O)=O)cc1 [NMS-873, reference compound] | 4.1 | minimal inhibition | 5 | 84 | fold less toxic than CB-5083 (A549/ACE2/TMPRSS2 cells; A549/ACE2/TMPRSS2 cells, relative to CB-5083): approximately 4 fold; inhibition at 1.6 µM ([2]; Severe acute respiratory syndrome coronavirus 2, Conc. 1.6 µM (0.4 × CC50), A549/ACE2/TMPRSS2, MOI 0.01, 48 h, mean ± standard error, read-out: SARS-CoV-2 Inhib. (%)): 0%; p97 Inhib. (%) at 0.10 µM (p97): poor inhibition
15 | CCC(CC)COC(=O)[C@H](C)N[P@](=O)(OC[C@H]1O[C@@](C#N)(c2ccc3c(N)ncnn23)[C@H](O)[C@@H]1O)Oc1ccccc1 [remdesivir, reference compound] | > 10 |  |  |  | EC50 [2, 6]: 0.044 µM; inhibition at 2 µM [2, 3]: 100%
